Assay results taken from US12365655B2, “Compounds” (CTXT PTY LTD, priority 2018, dated 2025).
Structures can show the parent of a compound that is named as a salt.

Key:
TIP60-KAT5 = TIP60-KAT5 (Homo sapiens, UniProt Q92993); assay: Acetyltransferase biochemical assay (AlphaScreen), KAT5
HBO-KAT7 = HBO-KAT7 (Homo sapiens, UniProt O95251); assay: Acetyltransferase biochemical assay (AlphaScreen), KAT7
MOZ-KAT6A = MOZ-KAT6A (Homo sapiens, UniProt Q92794, A567V); assay: Acetyltransferase biochemical assay (AlphaScreen), KAT6A
Sequence of MOZ-KAT6A (Q92794 with tags, fused parts or gaps A567V): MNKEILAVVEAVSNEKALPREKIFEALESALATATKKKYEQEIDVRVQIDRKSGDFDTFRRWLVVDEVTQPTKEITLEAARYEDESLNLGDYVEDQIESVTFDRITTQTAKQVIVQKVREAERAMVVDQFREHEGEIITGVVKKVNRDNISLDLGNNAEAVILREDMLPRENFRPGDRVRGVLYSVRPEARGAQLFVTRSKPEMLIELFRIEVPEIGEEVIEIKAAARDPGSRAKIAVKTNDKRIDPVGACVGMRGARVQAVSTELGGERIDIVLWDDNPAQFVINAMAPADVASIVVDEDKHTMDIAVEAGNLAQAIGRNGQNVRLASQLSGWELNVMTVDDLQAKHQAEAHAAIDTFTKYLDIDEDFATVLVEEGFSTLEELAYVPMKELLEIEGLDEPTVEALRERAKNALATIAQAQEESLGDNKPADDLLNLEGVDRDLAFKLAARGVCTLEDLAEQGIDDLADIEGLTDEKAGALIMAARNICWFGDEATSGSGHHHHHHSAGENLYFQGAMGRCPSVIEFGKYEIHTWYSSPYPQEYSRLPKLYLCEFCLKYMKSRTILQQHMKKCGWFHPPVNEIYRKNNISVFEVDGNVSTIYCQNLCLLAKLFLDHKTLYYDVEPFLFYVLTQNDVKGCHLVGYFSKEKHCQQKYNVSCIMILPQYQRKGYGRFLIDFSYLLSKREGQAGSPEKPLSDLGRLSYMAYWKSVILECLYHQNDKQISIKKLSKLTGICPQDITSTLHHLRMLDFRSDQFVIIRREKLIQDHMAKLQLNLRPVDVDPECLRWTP

Sequence of TIP60-KAT5 (Q92993 with tags, fused parts or gaps isoform Q92993-2): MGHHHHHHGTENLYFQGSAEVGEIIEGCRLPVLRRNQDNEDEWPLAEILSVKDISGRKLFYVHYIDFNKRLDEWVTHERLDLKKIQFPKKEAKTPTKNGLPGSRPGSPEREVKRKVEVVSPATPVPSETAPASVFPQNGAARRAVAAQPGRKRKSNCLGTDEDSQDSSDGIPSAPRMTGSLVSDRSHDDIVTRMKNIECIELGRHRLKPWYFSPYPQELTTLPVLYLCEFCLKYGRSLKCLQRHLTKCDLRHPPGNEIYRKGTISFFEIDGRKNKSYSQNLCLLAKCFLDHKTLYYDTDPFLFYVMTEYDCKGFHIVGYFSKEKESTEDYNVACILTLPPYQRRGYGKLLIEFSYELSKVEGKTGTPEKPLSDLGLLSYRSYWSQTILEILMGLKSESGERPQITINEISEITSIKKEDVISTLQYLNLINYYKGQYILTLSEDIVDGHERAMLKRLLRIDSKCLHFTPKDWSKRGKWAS
Sequence of HBO-KAT7 (O95251 with tags, fused parts or gaps): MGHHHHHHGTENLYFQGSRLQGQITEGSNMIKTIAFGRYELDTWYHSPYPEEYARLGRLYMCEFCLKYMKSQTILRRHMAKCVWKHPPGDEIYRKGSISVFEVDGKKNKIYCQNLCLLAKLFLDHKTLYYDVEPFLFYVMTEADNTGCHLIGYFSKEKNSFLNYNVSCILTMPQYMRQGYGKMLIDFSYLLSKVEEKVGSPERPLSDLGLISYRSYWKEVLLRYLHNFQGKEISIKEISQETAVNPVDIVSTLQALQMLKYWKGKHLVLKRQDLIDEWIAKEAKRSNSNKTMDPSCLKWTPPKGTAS

Structure (SMILES) | IC50 (TIP60-KAT5) [µM] | IC50 (HBO-KAT7) [µM] | IC50 (MOZ-KAT6A) [µM]
CCc1ccc(OC)c(S(=O)(=O)Nc2noc3cccc(-c4cnn(C)c4)c23)c1 [Example 202, 5-Ethyl-2-methoxy-N-(4-(1-methyl-1H-pyrazol-4-yl)benzo[d]isoxazol-3-yl)benzenesulfonamide] | 111 | 54.4 | 18.9
CCc1ccc(OC)c(S(=O)(=O)Nc2noc3cccc(-c4cncnc4)c23)c1 [Example 203, 5-Ethyl-2-methoxy-N-(4-(pyrimidin-5-yl)benzo[d]isoxazol-3-yl)benzenesulfonamide] | 74.3 | 23.4 | 22.6
COc1cc(CN)cc(OC)c1S(=O)(=O)Nc1noc2cccc(OC)c12 [Example 210, 4-(Aminomethyl)-2,6-dimethoxy-N-(4-methoxybenzo[d]isoxazol-3-yl)benzenesulfonamide hydrochloride] | > 125 | 6.54 | 8.53
COc1cccc(O)c1S(=O)(=O)Nc1noc2cccc(OC)c12 [Example 213, 2-Hydroxy-6-methoxy-N-(4-methoxybenzo[d]isoxazol-3-yl)benzenesulfonamide] | > 125 | 20.5 | 8.28
COc1cccc(OCC2CC2)c1S(=O)(=O)Nc1noc2cccc(OC)c12 [Example 215, 2-(Cyclopropylmethoxy)-6-methoxy-N-(4-methoxybenzo[d]isoxazol-3-yl)benzenesulfonamide] | > 125 | 16.6 | 4.47
COc1cccc(OC(C)C)c1S(=O)(=O)Nc1noc2cccc(OC)c12 [Example 217, 2-Isopropoxy-6-methoxy-N-(4-methoxybenzo[d]isoxazol-3-yl)benzenesulfonamide] | > 125 | 18.4 | 10.2
COc1cccc(OCCO)c1S(=O)(=O)Nc1noc2cccc(OC)c12 [Example 220, 2-(2-Hydroxyethoxy)-6-methoxy-N-(4-methoxybenzo[d]isoxazol-3-yl)benzenesulfonamide] | > 125 | 11 | 3.5
CCc1ccc(OC)c(S(=O)(=O)Nc2noc3ccc(Cn4cccn4)cc23)c1 [Example 225] | > 125 | 31.1 | 3.62
CCc1ccc(OC)c(S(=O)(=O)Nc2noc3ccc(CN)cc23)c1 [Example 226] | 80.3 | 38 | 10.8
CCc1ccc(OC)c(S(=O)(=O)Nc2noc3ccc(CNC(=O)OC)cc23)c1 [Example 227, Methyl ((3-((5-ethyl-2-methoxyphenyl)sulfonamido)benzo[d]isoxazol-5-yl)methyl) carbamate] | > 125 | 63.1 | 41.5
CCc1ccc(OC)c(S(=O)(=O)Nc2noc3ccc(CNC(C)=O)cc23)c1 [Example 228, N-((3-((5-Ethyl-2-methoxyphenyl)sulfonamido)benzo[d]isoxazol-5-yl)methyl)acetamide] | 124 | > 125 | 75.2
CCc1ccc(OC)c(S(=O)(=O)Nc2noc3ccc(CO)cc23)c1 [Example 229] | > 125 | 115 | 85
CCc1ccc(OC)c(S(=O)(=O)Nc2noc3ccc(C(=O)NC)cc23)c1 [Example 230, 3-((5-Ethyl-2-methoxyphenyl)sulfonamido)-N-methylbenzo[d]isoxazole-5-carboxamide] | > 125 | 109 | 48.1
CCc1ccc(OC)c(S(=O)(=O)Nc2noc3ccc(C(=O)N(C)C)cc23)c1 [Example 231, 3-((5-Ethyl-2-methoxyphenyl)sulfonamido)-N,N-dimethylbenzo[d]isoxazole-5-carboxamide] | > 125 | > 125 | 59
CCc1ccc(OC)c(S(=O)(=O)Nc2noc3ccc(C(N)=O)cc23)c1 [Example 232, 3-((5-Ethyl-2-methoxyphenyl)sulfonamido)benzo[d]isoxazole-5-carboxamide] | > 125 | > 125 | 46.5
CCc1ccc(OC)c(S(=O)(=O)Nc2noc3ccc(C#N)cc23)c1 [Example 233] | > 125 | 17.9 | 9.95
CCc1ccc(OC)c(S(=O)(=O)Nc2noc3ccc(-c4cnn(C)c4)cc23)c1 [Example 237, 5-Ethyl-2-methoxy-N-(5-(1-methyl-1H-pyrazol-4-yl)benzo[d]isoxazol-3-yl)benzenesulfonamide] | > 125 | 18 | 4.95
CCc1ccc(OC)c(S(=O)(=O)Nc2noc3ccc(-c4cncnc4)cc23)c1 [Example 238, 5-Ethyl-2-methoxy-N-(5-(pyrimidin-5-yl)benzo[d]isoxazol-3-yl)benzenesulfonamide] | > 125 | 94.2 | 12
COc1cccc(OC)c1S(=O)(=O)Nc1noc2cc(COCC(F)(F)F)cc(OC)c12 [Example 240, 2,6-Dimethoxy-N-(4-methoxy-6-((2,2,2-trifluoroethoxy)methyl)benzo[d]isoxazol-3-yl)benzenesulfonamide] | 122 | 10.2 | 1.83
COc1cccc(OC)c1S(=O)(=O)Nc1noc2cc(-c3ccncc3)cc(OC)c12 [Example 245, 2,6-Dimethoxy-N-(4-methoxy-6-(pyridin-4-yl)benzo[d]isoxazol-3-yl)benzenesulfonamide] | 57.6 | 2.76 | 3.9
COc1ccc(-c2cc(OC)c3c(NS(=O)(=O)c4c(OC)cccc4OC)noc3c2)cn1 [Example 247, 2,6-Dimethoxy-N-(4-methoxy-6-(6-methoxypyridin-3-yl)benzo[d]isoxazol-3-yl)benzenesulfonamide] | 96.6 | 5.9 | 3.48
COc1cc(-c2cc(OC)c3c(NS(=O)(=O)c4c(OC)cccc4OC)noc3c2)ccn1 [Example 249, 2,6-Dimethoxy-N-(4-methoxy-6-(2-methoxypyridin-4-yl)benzo[d]isoxazol-3-yl)benzenesulfonamide] | 69.2 | 0.889 | 1.27
COc1cc(C#N)cc(-c2cc(OC)c3c(NS(=O)(=O)c4c(OC)cccc4OC)noc3c2)c1 [Example 251] | 47 | 0.473 | 1.16

The next compounds have a lower IC50 (TIP60-KAT5) than those just listed; values first:

IC50 (TIP60-KAT5) [µM] | IC50 (HBO-KAT7) [µM] | IC50 (MOZ-KAT6A) [µM] | Structure (SMILES)
30.2 | 1.11 | 2.13 | COc1cccc(OC)c1S(=O)(=O)Nc1noc2cc(C)cc(OC)c12 [Example 244, 2,6-Dimethoxy-N-(4-methoxy-6-methylbenzo[d]isoxazol-3-yl)benzenesulfonamide]
28.7 | 1.05 | 2.03 | COc1cc(CO)cc(OC)c1S(=O)(=O)Nc1noc2cccc(OC)c12 [Example 209, 4-(Hydroxymethyl)-2,6-dimethoxy-N-(4-methoxybenzo[d]isoxazol-3-yl)benzenesulfonamide]
28.5 | 4.65 | 1.63 | CCc1ccc(OC)c(S(=O)(=O)Nc2noc3ccc(C4CC4)c(OC)c23)c1 [Example 208]
27.1 | 0.478 | 0.676 | COc1cccc(OC)c1S(=O)(=O)Nc1noc2cc(-c3cccnc3)cc(OC)c12 [Example 246, 2,6-Dimethoxy-N-(4-methoxy-6-(pyridin-3-yl)benzo[d]isoxazol-3-yl)benzenesulfonamide]
26.8 | 1.42 | 0.655 | COc1cccc(OCc2ccccc2)c1S(=O)(=O)Nc1noc2cccc(OC)c12 [Example 222, 2-(Benzyloxy)-6-methoxy-N-(4-methoxybenzo[d]isoxazol-3-yl)benzenesulfonamide]
26.3 | 2.51 | 0.157 | COc1cccc(OC)c1S(=O)(=O)Nc1noc2cc(-c3ccccn3)c(C)cc12 [Example 241, 2,6-Dimethoxy-N-(5-methyl-6-(pyridin-2-yl)benzo[d]isoxazol-3-yl)benzenesulfonamide]
21.8 | 0.773 | 1.48 | CCc1ccc(OC)c(S(=O)(=O)Nc2noc3cccc(C4CCCCC4)c23)c1 [Example 201]
18.1 | 0.72 | 0.654 | COc1cccc(OC)c1S(=O)(=O)Nc1noc2cc(-c3cccc(C#N)c3)cc(OC)c12 [Example 243]
17.4 | 3 | 2.13 | COc1cccc(OC)c1S(=O)(=O)Nc1noc2c(Br)cc(C)cc12 [Example 239]
14.9 | 0.632 | 0.709 | CCc1ccc(OC)c(S(=O)(=O)Nc2noc3cccc(CC)c23)c1 [Example 199]
9.33 | 0.375 | 0.139 | COc1cc(C)cc(-c2cc(OC)c3c(NS(=O)(=O)c4c(OC)cccc4OC)noc3c2)c1 [Example 248, 2,6-Dimethoxy-N-(4-methoxy-6-(3-methoxy-5-methylphenyl)benzo[d]isoxazol-3-yl)benzenesulfonamide]
9.04 | 0.82 | 0.395 | CCc1ccc(OC)c(S(=O)(=O)Nc2noc3ccc(CC)cc23)c1 [Example 235]
6.36 | 0.626 | 0.302 | CCc1ccc(OC)c(S(=O)(=O)Nc2noc3ccc(CC)c(Cl)c23)c1 [Example 206]
4.73 | 0.678 | 0.364 | CCc1ccc(OC)c(S(=O)(=O)Nc2noc3cccc(C4CC4)c23)c1 [Example 200]
